Consider eight molecules from US20220233605A1, “METHODS OF MAKING AND USING LIVER CELLS” (University Health Network, priority 2019, published 2022).

Common to all, as to type: cell-based, human
In one series the test system is CFTR expression. Briefly: Induction of CFTR expression in hepatoblasts differentiated to cholangiocytes in monolayer (co-culture with OP9-Jag1). The note with it: hepatoblasts co-cultured with OP9-Jag1, monolayer, 6 days. The procedure: OP9 cells were maintained as described previously. 30 Gray irradiated OP9 cells were plated on 2.5% Matrigel coated wells (12 well plates) at a concentration of 200,000 cells per well in alpha-modified minimum essential media (a-MEM) supplemented with glutamine (2 mM) and 20% fetal bovine serum. To induce the cholangiocytes differentiation, day 27 hepatoblasts were dissociated using collagenase type I enzyme and then plated onto the irradiated OP9 cells. The plated cells were cultured in H21 DMEM/Ham's F12 (3:1) media supplemented with 0.1% BSA, 1% vol/vol B27 supplement, ascorbic acid, glutamine, MTG, HGF (20 ng/ml), and epidermal growth factor (EGF, 50 ng/ml) for 4 days. […] To promote the maturation of cholangiocytes that express primary cilia and 4D9, the cells were cultured with DMEM/F12 medium with 0.1% BSA, 1% vol/vol B27 supplement, ascorbic acid, glutamine, MTG, Noggin (50 ng/ml), ROCK inhibitor Y-27632 (5 μM) and Forskolin (FSK, 5 μM) for 12 days. The medium for all steps of cholangiocytes differentiation were changed every two days. The cells were maintained in an ambient O2 incubator.
It has previously been reported that it is possible to generate cholangiocytes that express a number of markers that are indicative of mature cells including the cystic fibrosis transmembrane conductance regulator (CFTR) gene, in which mutations cause cystic fibrosis. The development of mature cholangiocytes was dependent on growth of the cells as cysts in 3D semi-solid cultures consisting of Matrigel and collagen. While this approach yielded relatively mature cholangiocytes, the culture system was not amenable to cell expansion or high throughput screening (e.g., for drugs against cystic fibrosis and other biliary diseases). To improve the differentiation efficiency in monolayer cultures, a panel of cytokines and small molecules that are known to play a role in bile duct development were screened to identify those that would promote the upregulation of CFTR expression as an indication of maturation. Since Notch signaling is required for the production of cholangiocytes, hepatoblasts were cultured on either OP9-Jagl cells or Matrigel for 6 days as previously described. […] To further investigate the role of RA signaling, the effects of specific RA receptor agonists as well as a pan antagonist also were tested.

In series [1] the test system is hPSC-derived hepatocytes. Briefly: Zonation of hPSC-derived hepatocytes by Wnt manipulation (gene expression). Particulars: added days 38 to 56 with T3. As to the method: Day 27 hepatoblasts were cultured in DMEM/F12 (50:50) with 0.2% BSA, 1% vol/vol ITS-X, ascorbic acid, glutamine, MTG, Dex (40 ng/ml), and OSM (5 ng/ml) for 6 days in monolayer. Day 33 hepatoblasts were dissociated using collagenase type 1 enzyme to make a small cluster of hepatoblasts. The dissociated small clusters were maintained in a low cluster culture dish and cultured in DMEM/F12 (50:50) medium supplemented with 0.2% BSA, 1% vol/vol ITS-X, ascorbic acid, 1% vol/vol chemically defined lipid mix medium (Thermo Fisher Scientific), 0.5% vol/vol B27, glutamine, MTG, Dex (40 ng/ml), and CHIR99021 (1 μM) for 6 days to promote the maturation in 3D aggregates. […]

In series [2] the test system is hPSC-derived hepatocytes. The experiment in a line: Maturation of hPSC-derived hepatocytes: AFP expression by flow cytometry and qRT-PCR. Particulars: added days 38 to 56, aggregates, 40 ng/ml dexamethasone.
Description: For these studies, T3 was added to the cultures during the maturation step, from days 38 to 56. During this stage, the cells are cultured as aggregate in the presence of 40 ng/ml dexamethasone, as previously described.
The test system of series [3] is hPSC-derived cholangiocytes. Briefly: Flow cytometric screen for DHC5-4D9 reactive mature cholangiocytes in monolayer. Particulars: added to cultures for 6 days, flow cytometry.
Description: 30 Gray irradiated OP9 cells were plated on 2.5% Matrigel coated wells (12 well plates) at a concentration of 200,000 cells per well in alpha-modified minimum essential media (a-MEM) supplemented with glutamine (2 mM) and 20% fetal bovine serum. To induce the cholangiocytes differentiation, day 27 hepatoblasts were dissociated using collagenase type I enzyme and then plated onto the irradiated OP9 cells. The plated cells were cultured in H21 DMEM/Ham's F12 (3:1) media supplemented with 0.1% BSA, 1% vol/vol B27 supplement, ascorbic acid, glutamine, MTG, HGF (20 ng/ml), and epidermal growth factor (EGF, 50 ng/ml) for 4 days. […] To promote the maturation of cholangiocytes that express primary cilia and 4D9, the cells were cultured with DMEM/F12 medium with 0.1% BSA, 1% vol/vol B27 supplement, ascorbic acid, glutamine, MTG, Noggin (50 ng/ml), ROCK inhibitor Y-27632 (5 μM) and Forskolin (FSK, 5 μM) for 12 days. […]
To identify pathways that promote further maturation of the hPSC-derived cholangiocytes, a screening approach was used based on flow cytometric identification of cells that express the epitope recognized by the antibody DHCS-4D9, which stains mature bile ductal cells (cholangiocytes) in the adult liver. […] Following this maturation step, the cells were harvested and analyzed by flow cytometry for reactivity with DHC5-4D9.

Entries after “also recorded” stand apart in the source; their conditions may differ.

With `CC1(C)CC=C(C#Cc2ccccc2)c2cc(/C=C/c3ccc(C(=O)O)cc3)ccc21` [BMS493], the CFTR expression result with CFTR expression is “inhibited the induction of CFTR expression”.
Consider `Oc1nc(-c2ccc(C(F)(F)F)cc2)nc2c1CSCC2` [XAV], for which the “zonal gene expression of hepatocytes” value with hPSC-derived hepatocytes [1] was “expressed genes associated with Zone 1 hepatocytes”.
Turning to AM580, in the series with CFTR expression, the CFTR expression entry was “induced CFTR expression”.
For `N[C@@H](Cc1cc(I)c(Oc2ccc(O)c(I)c2)c(I)c1)C(=O)O` [T3, Triiodothyronine], the “levels of AFP expression” value in the series with hPSC-derived hepatocytes [2] is given as “dramatic decrease in the levels of AFP expression; also recorded: significantly lower than the levels observed in cells treated with cAMP”.
With `Cc1c[nH]c(-c2cnc(NCCNc3ccc(C#N)cn3)nc2-c2ccc(Cl)cc2Cl)n1` [CHIR, 6-[[2-[[4-(2,4-Dichlorophenyl)-5-(5-methyl-1H-imidazol-2-yl)-2-pyrimidinyl]amino]ethyl]amino]-3-pyridinecarbonitrile], in the series on hPSC-derived hepatocytes [1], the “zonal gene expression of hepatocytes” value was “expressed genes associated with Zone 3 hepatocytes”.
With `CCCCCCCCc1ccc(-c2ccc(C(=O)O)cc2)cc1` [AC55649], the CFTR expression entry in the series on CFTR expression is “induced CFTR expression”.
Still for that read-out and setting: under `O=C(O)c1ccc2cc(-c3ccc(O)c(C45CC6CC(CC(C6)C4)C5)c3)ccc2c1` [CD437] stands “induced CFTR expression”.

B1: N: Noggin, inhibition of the BMP pathway (protein, UniProt Q13253 28-232, looked up)
Noggin: QHYLHIRPAPSDNLPLVDLIEHPDPIFDPKEKDLNETLLRSLLGGHYDPGFMATSPPEDRPGGGGGAAGGAEDLAELDQLLRQRPSGAMPSEIKGLEFSEGLAQGKKQRLSKKLRRKLQMWLWSQTFCPVLYAWNDLGSRFWPRYVKVGSCFSKRSCSVPEGMVCKPSKSVHLTVLRWRCQRRGGQRCGWIPIQYPIISECKCSC
For B1, the “development of DHC5-4D9 cells” value in series [3] is on record as “promoted the development of DHC5-4D9 cells”.
